Experimental data taken from US20020059032A1, “Rational selection of putative peptides from identified nucleotide or peptide sequences” (priority 1999, published 2002).
Where a SMILES comes first, the peptide text is derived from it.

target: guinea pig brain membranes; test: Binding test with guinea pig brain membranes; conditions: tested on guinea pig brain membranes; read-out: IC50 = 100 μM
Protocol: Binding Assay Alternative Protocol by Skatron
The experimental conditions are identical for all the binding assay protocols except for the fact that: i) the volume R in operation is 200 μl; ii) the test carried out in 96-well Falcon plates iii) the reaction is directly stopped by filtration on filterMat (ref. 11734) Skatron and the radioactivity associated with the filtrate is evaluated: either directly with a γ counter for the peptides labelled with […]: or with a […] in the presence of 5 ml of scintillating liquid.
Membrane Preparations of Guinea Pig Brains and Binding Assay
The guinea pigs are sacrificed by rupturing their cervical vertibrae, decapitated, and the brains are removed very rapidly and placed into a sucrose-Tris-HCl buffer (0.32 M sucrose 5 mM, Tris-HCl, 0.1 g/l bacitracin) at 4° C. (about 10 ml of buffer per brain). The brains are then homogenized using a Potter device and the homogenate is placed in incubation for 30 minutes at 37° C. under agitation, then centrifuged twice for 35 minutes at 100,000×g at 4° C. The protein content of the membrane preparations is evaluated according to the Bradford method (BioRad, according to the manufacturers protocol).
Bonding of Labelled Agonists to the Guinea Pig Brain Membrane Preparation The membranes are placed in a buffer (50 mM of Tris-HCl, 5 mM of MgCl2 and 0.1 g/l of bacitracin) at the desired protein concentration (iodized CCK bond, 0.1 mg of protein/ml; iodized gastrin bond: 0.5 mg of proteins/ml). They are then incubated in the presence of a labelled ligand in a total volume of 500 μl (about 10 pM for the iodized CCK8, 20 pM for the iodized gastrin13), 50-80 minutes at 25° C., and in the presence or absence of cold agonists. The reaction is stopped with 3 ml of additional BSA buffer (20 g/l) at 4° C., the tubes are centrifuged at 10,000×g, the supernatant is drawn off and the radioactivity associated with the precipitate is evaluated with a γ counter.

Compared with `CC[C@H](C)[C@H](NC(=O)[C@H](Cc1ccccc1)NC(=O)[C@H](CCC(=O)O)NC(=O)[C@@H]1CCCN1C(=O)[C@H](Cc1ccc(O)cc1)NC(=O)[C@H](Cc1c[nH]cn1)NC(=O)[C@H](CCC(=O)O)NC(=O)[C@@H](NC(=O)[C@@H](N)CC(C)C)C(C)C)C(N)=O` [Example 45, H-LVEHYPEFI-NH2] (H-LVEHYPEFI-NH2), `CC[C@H](C)[C@H](NC(=O)[C@H](CO)NC(=O)[C@H](Cc1ccccc1)NC(=O)[C@@H]1CCCN1C(=O)[C@@H](NC(=O)[C@H](Cc1ccccc1)NC(=O)[C@H](C)NC(=O)[C@H](CC(=O)O)NC(=O)[C@@H](N)CO)C(C)C)C(N)=O` [Example 22, H-SDAFVPFSI-NH2] (H-SDAFVPFSI-NH2) is 4-fold higher in IC50: 700 nM for the first, 2800 nM for the second. The first is the more potent here.

Going from `CC[C@H](C)[C@H](NC(=O)[C@H](CO)NC(=O)[C@@H](N)Cc1ccccc1)C(=O)N[C@@H](C)C(=O)N[C@H](C(=O)N[C@@H](CC(C)C)C(=O)N[C@@H](CCCNC(=N)N)C(=O)N[C@@H](CC(=O)O)C(=O)N[C@@H](Cc1ccccc1)C(=O)NCC(=O)N[C@H](C(N)=O)C(C)C)[C@@H](C)O` [Example 15, H-FSIATLRDFGV-NH2] (H-FSIATLRDFGV-NH2) to `CC(C)C[C@H](NC(=O)CNC(=O)[C@H](CC(C)C)NC(=O)[C@H](CC(N)=O)NC(=O)[C@H](CCCNC(=N)N)NC(=O)[C@H](CC(C)C)NC(=O)[C@@H](NC(=O)[C@H](CO)NC(=O)[C@@H](NC(=O)[C@H](CO)NC(=O)[C@@H](N)Cc1ccccc1)C(C)C)[C@@H](C)O)C(N)=O` [Example 46, H-FSVSTLRNLGL-NH2] (H-FSVSTLRNLGL-NH2), the IC50 falls from 360 nM to 100 nM (3.6-fold). The second is the more potent here.

Going from `CSCC[C@H](NC(=O)[C@H](CCCNC(=N)N)NC(=O)[C@@H](N)CCC(=O)O)C(=O)NCC(=O)N[C@@H](Cc1c[nH]cn1)C(=O)N[C@@H](Cc1c[nH]cn1)C(=O)N[C@@H](CC(=O)O)C(=O)N[C@@H](CC(=O)O)C(=O)N[C@@H](Cc1ccc(O)cc1)C(=O)N[C@@H](Cc1ccc(O)cc1)C(=O)N[C@@H](CO)C(=O)N[C@@H](CCCNC(=N)N)C(=O)N[C@@H](CC(C)C)C(=O)N[C@@H](CCCNC(=N)N)C(N)=O` [Example 44, H-ERMGHHDDYYSRLR-NH2] (H-ERMGHHDDYYSRLR-NH2) to `CSCC[C@H](N)C(=O)N[C@@H](CC(=O)O)C(=O)N[C@H](C(=O)NCC(=O)NCC(=O)N[C@@H](CC(C)C)C(=O)N[C@@H](CO)C(=O)N[C@@H](CC(=O)O)C(=O)N1CCC[C@H]1C(=O)N[C@@H](Cc1ccc(O)cc1)C(=O)N[C@H](C(=O)N[C@@H](CCCCN)C(=O)N[C@H](C(=O)N[C@@H](Cc1c[nH]cn1)C(=O)N[C@@H](CC(C)C)C(=O)N[C@@H](CC(C)C)C(=O)N[C@@H](CCC(N)=O)C(=O)NCC(N)=O)C(C)C)C(C)C)C(C)C` [Example 10, H-MDVGGLSDPYVKVHLLQG-NH2] (H-MDVGGLSDPYVKVHLLQG-NH2), the IC50 falls from 100 nM to 30 nM (3.3-fold).

`CC(C)C[C@H](NC(=O)[C@H](CC(N)=O)NC(=O)[C@H](CC(=O)O)NC(=O)[C@H](Cc1c[nH]c2ccccc12)NC(=O)[C@@H](NC(=O)[C@H](CC(C)C)NC(=O)[C@H](CC(=O)O)NC(=O)[C@H](CO)NC(=O)[C@H](C)NC(=O)[C@@H](N)CO)[C@@H](C)O)C(=O)N[C@@H](CCCCN)C(N)=O` [Example 34, H-SASDLTWDNLK-NH2] (H-SASDLTWDNLK-NH2) and `CC(C)C[C@H](NC(=O)[C@H](C)N)C(=O)N[C@@H](CCC(=O)O)C(=O)N[C@@H](Cc1c[nH]c2ccccc12)C(=O)N[C@@H](CC(C)C)C(=O)NCC(=O)N[C@@H](C)C(=O)N[C@@H](CC(=O)O)C(=O)N[C@@H](CCCNC(=N)N)C(=O)N[C@@H](CC(N)=O)C(=O)N[C@@H](CCC(=O)O)C(N)=O` [Example 37, H-ALEWLGADRNE-NH2] (H-ALEWLGADRNE-NH2) are within 1.5-fold of each other in IC50: 1000 nM for the first, 800 nM for the second.

Compared with `C[C@H](NC(=O)[C@H](CCC(=O)O)NC(=O)[C@@H]1CCCN1C(=O)[C@H](CCC(N)=O)NC(=O)[C@H](Cc1ccccc1)NC(=O)[C@H](CO)NC(=O)[C@H](CO)NC(=O)[C@@H](N)CCC(=O)O)C(=O)NCC(=O)N[C@@H](Cc1ccccc1)C(N)=O` [Example 24, H-ESSFQPEAGF-NH2] (H-ESSFQPEAGF-NH2), `CC[C@H](C)[C@H](NC(=O)[C@@H]1CCCN1C(=O)[C@H](CCC(=O)O)NC(=O)[C@H](CC(=O)O)NC(=O)[C@@H](NC(=O)CNC(=O)[C@H](CCC(=O)O)NC(=O)[C@H](Cc1ccccc1)NC(=O)[C@H](CC(=O)O)NC(=O)[C@@H](NC(=O)[C@@H](N)CC(=O)O)C(C)C)[C@@H](C)O)C(=O)N[C@@H](Cc1ccccc1)C(N)=O` [Example 38, H-DVDFEGTDEPIF-NH2] (H-DVDFEGTDEPIF-NH2) is 2.2-fold higher in IC50: 230 nM for the first, 500 nM for the second.

Going from `CSCC[C@H](NC(=O)[C@@H](N)Cc1ccc(O)cc1)C(=O)N[C@@H](Cc1c[nH]cn1)C(=O)NCC(=O)N[C@@H](Cc1c[nH]cn1)C(=O)N[C@@H](CCCNC(=N)N)C(=O)N[C@@H](C)C(=O)N1CCC[C@H]1C(=O)NCC(N)=O` [Example 66, H-YMHGHRAPG-NH2] (H-YMHGHRAPG-NH2) to `CC(C)C[C@H](NC(=O)[C@@H]1CCCN1C(=O)[C@H](CC(C)C)NC(=O)[C@H](CCC(N)=O)NC(=O)[C@@H](N)Cc1ccccc1)C(=O)N[C@@H](CC(=O)O)C(=O)N[C@@H](CCCCN)C(=O)NCC(=O)N[C@@H](CC(N)=O)C(N)=O` [Example 29, H-FQLPLDKGN-NH2] (H-FQLPLDKGN-NH2), the IC50 rises from 2 nM to 10 nM (5-fold). The first is the more potent here.

Compared with `CC(C)[C@H](NC(=O)[C@H](C)NC(=O)[C@H](CCCCN)NC(=O)[C@H](C)NC(=O)[C@@H]1CCCN1C(=O)[C@@H](NC(=O)[C@@H](NC(=O)[C@@H](N)[C@@H](C)O)C(C)C)[C@@H](C)O)C(=O)N[C@H](C(=O)N[C@H](C(=O)N1CCC[C@H]1C(N)=O)[C@@H](C)O)[C@@H](C)O` [Example 59, H-TVTPAKAVTTP-NH2] (H-TVTPAKAVTTP-NH2), `CC[C@H](C)[C@H](NC(=O)[C@@H]1CCCN1C(=O)[C@@H](NC(=O)[C@H](Cc1ccccc1)NC(=O)[C@H](CC(C)C)NC(=O)[C@@H](NC(=O)[C@H](CO)NC(=O)CNC(=O)[C@H](CC(C)C)NC(=O)[C@H](CC(C)C)NC(=O)[C@@H]1CCCN1)[C@@H](C)O)[C@@H](C)CC)C(N)=O` [Example 12, H-PLLGSTLFIPI-NH2] (H-PLLGSTLFIPI-NH2) is 20-fold lower in IC50: 410 nM for the first, 20 nM for the second.

Compared with `CC[C@H](C)[C@H](NC(=O)[C@H](C)NC(=O)[C@@H](NC(=O)[C@H](CCC(=O)O)NC(=O)[C@H](CCC(=O)O)NC(=O)[C@@H]1CCCN1C(=O)[C@H](Cc1ccccc1)NC(=O)[C@@H](N)CC(=O)O)C(C)C)C(=O)N[C@H](C(=O)N[C@@H](CCC(=O)O)C(=O)N[C@@H](CCC(=O)O)C(=O)N[C@@H](CC(C)C)C(N)=O)C(C)C` [Example 9, H-DFPEEVAIVEEL-NH2] (H-DFPEEVAIVEEL-NH2), `CC[C@H](C)[C@H](NC(=O)[C@H](Cc1ccccc1)NC(=O)[C@H](C)NC(=O)[C@H](CCSC)NC(=O)[C@@H](NC(=O)[C@H](CCC(=O)O)NC(=O)[C@@H]1CCCN1C(=O)CNC(=O)[C@H](CCCCN)NC(=O)[C@@H](N)CCSC)C(C)C)C(=O)N[C@@H](CCC(=O)O)C(=O)N[C@@H](CCC(N)=O)C(N)=O` [Example 40, H-MKGPEVMAFIEQ-NH2] (H-MKGPEVMAFIEQ-NH2) is 1.7-fold lower in IC50: 220 nM for the first, 130 nM for the second.

Compared with `CSCC[C@H](NC(=O)[C@H](CCC(N)=O)NC(=O)[C@H](Cc1ccccc1)NC(=O)CNC(=O)[C@H](CO)NC(=O)[C@@H](N)CC(=O)O)C(=O)N[C@@H](CC(N)=O)C(=O)N[C@@H](CCC(N)=O)C(=O)N[C@@H](CC(C)C)C(=O)N[C@@H](CCCNC(=N)N)C(N)=O` [Example 13, H-DSGFQMNQLR-NH2] (H-DSGFQMNQLR-NH2), `CSCC[C@H](NC(=O)[C@@H](NC(=O)[C@H](CCC(=O)O)NC(=O)[C@H](CCC(=O)O)NC(=O)[C@H](CC(C)C)NC(=O)[C@H](CCC(N)=O)NC(=O)[C@@H](N)CC(C)C)[C@@H](C)O)C(=O)N1CCC[C@H]1C(=O)N[C@@H](CO)C(=O)N1CCC[C@H]1C(=O)N[C@@H](Cc1ccc(O)cc1)C(N)=O` [Example 14, H-LQLEETMPSPY-NH2] (H-LQLEETMPSPY-NH2) is 9.6-fold higher in IC50: 90 nM for the first, 860 nM for the second.

Going from `CSCC[C@H](NC(=O)[C@H](CO)NC(=O)[C@H](CCSC)NC(=O)[C@H](CO)NC(=O)[C@H](CC(=O)O)NC(=O)[C@H](CCCCN)NC(=O)[C@H](CC(N)=O)NC(=O)[C@H](CCC(N)=O)NC(=O)[C@H](CCCNC(=N)N)NC(=O)[C@@H](NC(=O)[C@H](CCCCN)NC(=O)[C@@H](N)CCSC)[C@@H](C)O)C(=O)N[C@@H](CCCNC(=N)N)C(=O)N[C@@H](CO)C(N)=O` [Example 43, H-MKTRQNKDSMSMRS-NH2] (H-MKTRQNKDSMSMRS-NH2) to `CC(C)C[C@H](NC(=O)[C@H](CO)NC(=O)[C@H](Cc1c[nH]cn1)NC(=O)[C@H](CO)NC(=O)[C@H](CO)NC(=O)[C@@H](N)CO)C(=O)N[C@@H](CO)C(=O)N[C@@H](Cc1c[nH]cn1)C(=O)N[C@@H](CCCCN)C(N)=O` [Example 68, H-SSSHSLSHK-NH2] (H-SSSHSLSHK-NH2), the IC50 falls from 50 nM to 25 nM (2-fold). The second is the more potent here.
